Experimental data published in US7118899B2, “Detection of transmembrane potentials by optical methods” (The Regents of the University of California, priority 2001, dated 2006).

How the values were obtained:
astrocytoma cells = assay: Pentamethine oxonol translocation, displacement currents in voltage-clamped astrocytoma cells; format: cell-based; settings: for translocation time constant (crosses the membrane): pentamethine oxonols, DiSBA-C6-(5) value at 20; for displacement current time constant: voltage steps of +20–120 mV
From the text: The membrane translocation rates for the pentamethines are 5–8 times faster than the trimethine analogues. […] The trimethine analogue translocates […] under identical conditions. The displacement currents of DiSBAC6(5) decay very rapidly and are difficult to separate from the cell capacitance. As a result of the large voltage-dependent signal from the Cou-PE/DiSBAC6(5) pair, it was possible to optically measure the speed of voltage response of DiSBAC6(5). The time constant for DiSBAC6(5) translocation was measured optically at 0.383±0.032 ms in response to a 100 mV depolarization step, using FRET from asymmetrically labeled Cou-PE. The enhanced translocation rates result from the greater charge delocalization and slightly more hydrophobicity of the pentamethine oxonols. The rapid voltage response of DiSBAC6(5) is the fastest known for a permeant, highly fluorescent molecule. The submillisecond response is fast enough to accurately register action potentials of single neurons.

1321N astrocytoma cells = assay: Voltage-sensitive FRET fluorescence changes in voltage clamped astrocytoma cells; format: cell-based; settings: 100 mV depolarization step, FRET from asymmetrically labeled Cou-PE
Procedure: (§1) All cells were grown and handled like L-M(TK^−) except where noted. L-M(TK^−) cells were grown in Dulbecco's Modified Eagle Media (Gibco; Grand Island, N.Y.) with 10% fetal bovine serum (FBS) and 1% penicillin streptomycin (PS) (Gemini; Calabasas, Calif.). B104 cells were differentiated with 1 μM retinoic acid for 5 days prior to use. The cells were plated on glass coverslips at least one day before use. The adherent cells were washed and maintained in 2.5–3.0 mL of HBSS with 1 g/L glucose and 20 mM HEPES at pH 7.4. A freshly prepared 75 μM aqueous solution of the appropriate oxonol was made prior to an experiment from a DMSO stock solution. […] If the excess ethyl or butyl oxonol derivatives were left in the bath, slow currents and fluorescence changes due to redistribution of the dyes into the cell were observed during depolarizations greater than 1 s. […]
(§2) The fluorescently labeled cells were excited with light from a 75 W xenon lamp passed through 450–490 nm excitation interference filters. […] The long wavelength Texas Red fluorescence was passed through a 605 nm DF55 bandpass filter. Voltage dependent fluorescence changes in single cells were measured using a Nikon microscope attached to a Photoscan II photometer equipped with two R928 PMTs for dual emission recordings. […]

L-M(TK^−) cells [1] = assay: Oxonol displacement currents (membrane translocation), whole-cell voltage clamp; format: cell-based; settings: for translocation time constant: voltage clamped mammalian cells
Procedure: (§3) All cells were grown and handled like L-M(TK^−) except where noted. L-M(TK^−) cells were grown in Dulbecco's Modified Eagle Media (Gibco; Grand Island, N.Y.) with 10% fetal bovine serum (FBS) and 1% penicillin streptomycin (PS) (Gemini; Calabasas, Calif.). B104 cells were differentiated with 1 μM retinoic acid for 5 days prior to use. The cells were plated on glass coverslips at least one day before use. The adherent cells were washed and maintained in 2.5–3.0 mL of HBSS with 1 g/L glucose and 20 mM HEPES at pH 7.4. A freshly prepared 75 μM aqueous solution of the appropriate oxonol was made prior to an experiment from a DMSO stock solution. The cells were stained by mixing 100 μL of the oxonol solution with 750 μL of the bath and then adding the diluted solution to the cells. The dye was left for 30–40 minutes at a bath concentration of […]. 1.5 mM β-cyclodextrin in the bath solution was necessary for cell loading of DiSBA-C6-(3). The butyl and ethyl derivatives were water-soluble enough to load cells with out β-cyclodextrin complexation. DiSBA-C10-(3) was loaded in a pH 7.4 solution containing 290 mM sucrose and 10 mM HEPES, 364 mOsm, for 10 min at a bath concentration of […]. DiSBA-C10-(3) labeling was quenched by replacing the bath with HBSS solution. The cells were stained with 15 µg/mL of FL-WGA for 15 minutes. The B104 cells required a 125 µg/mL bath concentration to give satisfactory lectin staining. The excess dyes were removed with repeated washes with HBSS. If the excess ethyl or butyl oxonol derivatives were left in the bath, slow currents and fluorescence changes due to redistribution of the dyes into the cell were observed during depolarizations greater than 1 s. The cardiac myocytes [Henderson, S. A., Spencer, M., Sen, A., Kumar, C., Siddiqui, M. A. Q., and Chien, K. R. 1989. Structure organization, and expression of the rat cardiac myosin light chain-2 gene. J. Biol. Chem. 264:18142–18146] were a gift of Professor Kenneth Chien, UCSD. The Jurkat lymphocyte suspensions were grown in RPMI media with 5% heat inactivated FBS and 1% PS. 15–20 mL aliquots of the cellular suspension were washed three times before and after dye staining by centrifugation at 100×g for 4 minutes followed by additions of fresh HBSS.
Patch clamp recording were made using an Axopatch 1-D amplifier equipped with a CV-4 headstage from Axon Instruments (Foster City, Calif.). The data were digitized and stored using the PCLAMP software. The pH 7.4 intracellular solution used contained 125 mM potassium gluconate, 1 mM CaCl2.2H2O, 2 mM MgCl2.6H2O, 11 mM EGTA, and 10 mM HEPES. For the B104 cells, 4 mM ATP and 0.5 mM GTP were added.
The translocation rates were studied in L-M(TK^−) cells using whole-cell voltage clamp recording. The L-M(TK^−) cells were chosen because they have very low background currents and are easy to patch clamp. These cells have a resting potential of −5 mV and no evident voltage activated currents.
12.5 ms long voltage steps at 15 mV increments were applied to the cell, from a holding potential of −70 mV. The larger, faster transients due to simple membrane capacitance transient could be minimized using the capacitance and series resistance compensation capabilities of the Axopatch amplifier, allowing the displacement currents to be clearly observed. The currents are due to redistribution of the membrane-bound oxonol in response to 8 depolarizations. The time constant for the displacement current is 2 ms for 120 mV depolarization. Equal amounts of charge move at the onset and conclusion of the voltage step, but in opposite directions, consistent with redistribution of stored ions from one energy minimum to the other across the plasma membrane. Furthermore, the induced capacitance dq/dV from the oxonol movement is calculated to be ˜5 pF for 100 mV depolarization. This value corresponds to roughly one third the membrane capacitance without the dye. […] The optimum density of sodium channels in an unmyelinated nerve. Philos. Trans. R. Soc. […]

L-M(TK^−) cells [2] = assay: Voltage-sensitive FRET fluorescence changes in voltage clamped L-M(TK^−) cells; format: cell-based
Procedure: as §3, with “The excess dyes were removed with repeated washes with HBSS.” left out, “The cardiac myocytes [Henderson, S. A., Spencer, M., Sen, A., Kumar, C., Siddiqui, M. A. Q., and Chien, K. R. 1989. Structure organization, and expression of the rat cardiac myosin light chain-2 gene. J. Biol. Chem. 264:18142–18146] were a gift of Professor Kenneth Chien, UCSD. The Jurkat lymphocyte suspensions were grown in RPMI media with 5% heat inactivated FBS and 1% PS. 15–20 mL aliquots of the cellular suspension were washed three times before and after dye staining by centrifugation at 100×g for 4 minutes followed by additions of fresh HBSS.” left out
as §2

B104 neuroblastoma cells = assay: Voltage-sensitive FRET in differentiated B104 neuroblastoma cells; format: cell-based; settings: oxonol as FRET donor to Cy5 labeled PE
Procedure: as §1, §2

neuroblastoma = settings: cited from earlier work
[3] = tested on: targeted GFP expressing cells; assay: Temporal response of the GFP/oxonol FRET change; format: cell-based; settings: oxonol acceptors; identical to displacement current time constants
From the text: The temporal response of the GFP/oxonol FRET change is dependent on the oxonol translocation rate and follows the previously observed trend with oxonol acceptors, faster responses with more hydrophobic acceptors. The measured time constants for the ethyl and butyl oxonol acceptors are ˜50 and ˜5 ms respectively in the targeted GFP expressing cells. The FRET response and the electrophysiologically measured displacement currents have identical time constants. The measured response times are 2–4 fold faster than previously reported and may be a property of the cells used or from a slight difference in temperature.

Jurkat cell suspensions = assay: Quenching of FL-WGA fluorescence by oxonol titration in cell suspensions; format: cell-based; settings: cells labeled with FL-WGA
Procedure: as §1
To transduce charge displacements into optical signals, the oxonol fluorescences at the intracellular and extracellular membrane binding sites is made different. Fluorescence asymmetry is created with the introduction of fluorescently labeled lectins bound to the extracellular membrane surface. […] The extinction coefficient and the fluorescence quantum yield of FL-WGA were measured to be 222,000 M^−1cm^−1 (˜3 fluorescein/protein) and 0.23, respectively. […]

[4] = voltage-clamped fibroblasts, 100 mV depolarization at 20 C

For `CCCCCCN1C(=O)C(=CC=CC=Cc2c(O)n(CCCCCC)c(=S)n(CCCCCC)c2=O)C(=O)N(CCCCCC)C1=S` [DiSBA-C6-(5), Bis-(1,3-dihexyl-2-thiobarbiturate)-pentamethineoxonol], the response time (astrocytoma cells) was “less than 1 ms”, the “translocation time constant (crosses the membrane)” value (astrocytoma cells) was ~0.4 ms and the “time constant for translocation, measured optically” value (1321N astrocytoma cells) was 0.383 ± 0.032 ms.
For `CCCCCCCCCCN1C(=O)C(=CC=Cc2c(O)n(CCCCCCCCCC)c(=S)n(CCCCCCCCCC)c2=O)C(=O)N(CCCCCCCCCC)C1=S` [DiSBA-C10-(3)], the “displacement currents (in words)” value (L-M(TK^−) cells [1]; compared with DiSBA-C6-(3), 20 C) was “approximately the same speed”, the translocation time constant (L-M(TK^−) cells [1]) was < 2 ms and the “displacement current time constant” value (L-M(TK^−) cells [1]; [4]) was “about 2 ms”.
With `CCCCCCN1C(=O)C(=CC=Cc2c(O)n(CCCCCC)c(=S)n(CCCCCC)c2=O)C(=O)N(CCCCCC)C1=S` [DiSBA-C6-(3), (1,3-dihexyl-2-thiobarbiturate)trimethine oxonol] the “time constant for the displacement current” value (L-M(TK^−) cells [1]; 120 mV depolarization, holding potential −70 mV, 20 C) was 2 ms, the “max, time constant for translocation at V=Vh” value (L-M(TK^−) cells [1]; fit to Eq. 2, FIG. 5, Vh=−5 mV and β=0.42) was 2.9 ms and the translocation time constant (L-M(TK^−) cells [1]) was < 3 ms. For the same compound, the “displacement current time constant” value (L-M(TK^−) cells [1]; [4]) was “about 2 ms”, the “response time (in words)” value (L-M(TK^−) cells [2]; oxonol as FRET donor to TR-WGA) was “same response time as FL-WGA/DiSBA-C6-(3)” and the “signal change (in words)” value (L-M(TK^−) cells [2]; oxonol as FRET donor to TR-WGA) was “only one half that for FL-WGA/DiSBA-C6-(3)”. The ratio changes (B104 neuroblastoma cells) was 5–15 %/100 mV.
For `CCCCCN(CCCCC)c1ccc(/C=C/C=C/c2cc[n+](CCCCS(=O)(=O)[O-])cc2)cc1` [RH-421], the fluorescence change (neuroblastoma) is given as 21 % /100 mV.
In the case of `CCCCN1C(=O)C(=CC=Cc2c(O)n(CCCC)c(=S)n(CCCC)c2=O)C(=O)N(CCCC)C1=S` [DiSBA-C4-(3), Bis-(1,3-dibutyl-2-thiobarbiturate)-trimethineoxonol], the “time constant of the FRET response” value [3] is reported as ~5 ms, the “displacement current time constant” value (L-M(TK^−) cells [1]; 20 C) is reported as ~18 ms and the “activation energy of translocation” value (L-M(TK^−) cells [2]; from time constants at 20 C and 29 C) is reported as ~17 kcal/mol. The “displacement current time constant” value (astrocytoma cells) was ~18 ms and the “lectin fluorescence intensity quenched” value (Jurkat cell suspensions) was “up to 30%”.
In the case of `CCCCN1C(=O)C(=CC=CC=Cc2c(O)n(CCCC)c(=S)n(CCCC)c2=O)C(=O)N(CCCC)C1=S` [DiSBA-C4-(5)], the “translocation rate relative to the trimethine oxonol analogues” value (astrocytoma cells) is reported as “six times faster than the corresponding trimethine oxonol”, the “translocation time constant (crosses the membrane)” value (astrocytoma cells) is reported as < 3 ms and the “displacement current time constant” value (astrocytoma cells) is reported as ~2 ms.
